Drawing on the SangsterLogP compilation, this text covers logP and logD for 124 compounds.

The nature of the first data set: method code SF, from Hansch, C. & Leo, A. (1987). Log P database [Dataset]. Pomona College Medicinal Chemistry Project.
Conditions: not given
The compound `CN(C=O)c1ccccc1` displayed a logP of 1.09.
Still for that read-out and setting: then `CC(=O)C(=Cc1ccccc1Cl)C(C)=O`, with 2.19; and `N#CN=[N+]([O-])c1cccc([N+](=O)[O-])c1`, with 1.45; and `C[C@@H](O)c1ccccc1`, with 1.42.
On the same count and under the same terms, then `O=C1OC(Cc2ccccc2)c2ccccc21` (centres undefined), with 3.12; and `N/N=C1\c2ccccc2C(=O)C1C(=O)C(c1ccccc1)c1ccccc1` (centres undefined), with 3.62; and `CNC(N)=NC#N`, with -0.77.
On the same count and under the same terms, then `O=[N+]([O-])C=Cc1ccoc1`, with 1.41; and `COc1ccc2c(c1)N=C(C)NS2(=O)=O`, with 0.56; and `O=C(CNC(=O)c1ccccc1)Oc1cccc(F)c1`, with 2.58.
Turning to `CN(C)/N=N/c1ccccc1C(=O)NNC(=O)CC#N`, the logP came to 1.44.
As for `ON=C(c1ccccc1)c1ccccc1`, the logP is 3.2.
On the same count and under the same terms, the value for `Cc1ccc2[nH]c(C(O)C(O)c3nc4cc(C)ccc4[nH]3)nc2c1` (centres undefined) was 1.27; that for `CCOC(=O)NC(O)C(Cl)(Cl)Cl` (centres undefined) was 1.84.
Same read-out and setting: the value for `CN(C)c1ccc2c(c1)C(=O)OC2(C)C` was 2.42; that for `CC(=O)Nc1ccc(N(C)C)cc1` was 1; that for `O=[N+]([O-])c1cccc2ncccc12` was 1.86.
The same measure, in the same setting: then `COc1ccc(-c2nc3cnccc3[nH]2)c(OCCCCl)c1`, with 3.53.
On to `C=CCOc1ccccc1`, for which the logP worked out at 2.94.
Regarding `CC(=O)Oc1ccccc1Br`, the logP came to 2.2.
The same measure, in the same setting: then `O=c1c2ccccc2ncn1O`, with -0.45; and `CCCOP(=O)(OCCC)OCCC`, with 1.87; and `c1ccc(CSc2nnc[nH]2)cc1`, with 1.45.
On the same count and under the same terms, the value for `COc1cc(OCCOC(=O)c2ccccc2)ccc1C=NO` was 2.94.
On to `N#C/C=C/c1ccccc1`, for which the logP was 1.96.
On the same count and under the same terms, the value for `COc1ccc2[nH]c(CCCCc3nc4cc(OC)ccc4[nH]3)nc2c1` was 1.42; that for `CON(C)C(=O)Nc1cccc(OCc2ccccc2)c1` was 3.11.
Still for that read-out and setting: then `CCOP(=O)(OCC)Oc1ccc(SC)cc1Cl`, with 3.05.
In the case of `O=[N+]([O-])c1ccc2[nH]c(CCCCc3nc4cc([N+](=O)[O-])ccc4[nH]3)nc2c1`, the logP came to 2.45.
The same measure, in the same setting: the value for `CCOC(=O)C(=Cc1cccc([N+](=O)[O-])c1)C(=O)OCC` was 2.71; that for `CNP(=O)(OC)Oc1ccccc1Cl` (centres undefined) was 1.61.
Compound `COc1cccc(OC)c1` displayed a logP of 2.21.
On the same count and under the same terms, then `COCC(=O)Nc1ccc(Cl)c(Cl)c1`, with 2.77.
The same measure, in the same setting: the value for `O=S1(=O)NC(Cc2ccccc2)=Nc2ccccc21` was 1.89; that for `CCc1n[nH]c(=O)[nH]c1=O` was 0.22.
The same measure, in the same setting: the value for `CC(=O)Nc1ccc(C(C)=O)cc1` was 1.24.
As to `COCCC(=O)N(C)c1ccc(S(=O)(=O)N(C)C)cc1`, the logP came to 0.33.
The same measure, in the same setting: the value for `COC(=O)NS(=O)(=O)c1ccc(N)cc1` was -0.27.
Still for that read-out and setting: then `CC1=Nc2cc(N)c(Cl)cc2S(=O)(=O)N1`, with 0.63; and `CC(=O)Nc1ccc(Cl)c(Cl)c1`, with 2.96.
The same measure, in the same setting: the value for `FC(Cl)Cl` was 1.55.
`CNc1cccc2ccccc12` displayed a logP of 2.88.
The compound `CNC(=O)O/N=C(\C)C(C)(C)[N+](=O)[O-]` returned a logP of 0.66.
Still for that read-out and setting: then `CC(=O)NCc1ccccc1`, with 0.95; and `O=c1[nH]c2ccccc2s1`, with 1.76; and `O=c1[nH]cc(C(F)(F)F)c(=O)[nH]1`, with 0.04.
Still for that read-out and setting: then `CCC1OC(=O)C(C)C(OC2CC(C)(OC)C(O)C(C)O2)C(C)C(OC2OC(C)CC(N(C)C)C2O)C2(C)CC(C)C3(OC(=O)OC(C3C)C1(C)O)O2` (centres undefined), with 3.11.
Same read-out and setting: then `CNC(=O)NC`, with -0.96; and `C=C(C)C1Cc2c(ccc3c2OC2COc4cc(OC)c(OC)cc4C2C3=O)O1` (centres undefined), with 4.1; and `NC(=O)c1cccc(F)c1`, with 0.91.
Turning to `OCC(F)(F)F`, the logP is 0.32.
Same read-out and setting: the value for `O=S(=O)(Nc1cn[nH]c1)c1ccccc1` was 0.87.
The same measure, in the same setting: then `O=c1[nH]c(=O)n([C@H]2C[C@H](O)[C@@H](CO)O2)cc1C(F)(F)F`, with -0.46.
On the same count and under the same terms, the value for `NC(=O)c1ccccc1F` was 0.64; that for `NC(=O)N=[N+]([O-])c1ccccc1` was 0.58.
With `CON(C)C(=O)Nc1cccc(C#N)c1`, the log partition coefficient (logP) is 1.33.
Still for that read-out and setting: then `CNc1nccn2cc(-c3ccc(S(C)=O)cc3OC)nc12` (centres undefined), with 1.88.
The same measure, in the same setting: then `Cc1cc(CSc2ccccc2Cl)c(O)c(C(=O)O)c1`, with 4.69; and `O=C1CC(=O)c2ccccc21`, with 0.61; and `COc1ccccc1C(=O)c1ccncc1`, with 1.86.
On the same count and under the same terms, the value for `FC(F)(F)c1ccccc1` was 2.9.
Compound `O=C(OC(=O)c1ccccc1)c1ccccc1` registered a logP of 2.26.
Still for that read-out and setting: the value for `C=CC=C` was 1.99.
Same read-out and setting: then `CC(C(=O)N(C)c1ccc(S(=O)(=O)N(C)C)cc1)c1ccccc1` (centres undefined), with 1.73; and `N#CSc1ccccc1`, with 2.54; and `CCOC(=O)C(=Cc1ccc(F)cc1)C(=O)OCC`, with 3.1.
Same read-out and setting: the value for `COc1cc(C=NO)ccc1O` was 2.16.
Turning to `CC1=Nc2ccc(C)cc2S(=O)(=O)N1`, the logP is 0.81.
Still for that read-out and setting: then `COP(=O)(NC(C)(C)C)Oc1cc(Cl)c(Cl)cc1Cl` (centres undefined), with 3.83; and `CNC(=O)Oc1cc(Cl)ccc1Cl`, with 2.44.
Still for that read-out and setting: then `N#Cc1cccc(OC(=O)CNC(=O)c2ccccc2)c1`, with 2.11; and `N#Cc1ccc(OC(=O)CNC(=O)c2ccccc2)cc1`, with 2.1.
On the same count and under the same terms, then `CC(C)(C)[N+](=O)[O-]`, with 1.01.
On to `Cc1ccccc1Cl`, for which the logP was 3.42.
On the same count and under the same terms, then `CCC(C)NC(=O)/C(F)=C\c1ccccc1` (centres undefined), with 3.1; and `O=Cc1cccc(Oc2ccccc2)c1`, with 3.38; and `CCCCC1OC(=O)c2cc([N+](=O)[O-])ccc21` (centres undefined), with 2.92.
On the same count and under the same terms, then `COc1cccc2cccnc12`, with 1.84; and `CCCCCCCCOC(=O)c1cccc(C(=O)OCCCCCCCC)c1`, with 5.55.
Consider `N#Cc1ccc(C(N)=O)cc1`, for which the logP was 0.48.
`CN(C)C(=O)Cc1cccs1` yielded a logP of 0.65.
The same measure, in the same setting: the value for `CC1=Nc2c(C)cccc2S(=O)(=O)N1` was 0.52.
Same read-out and setting: then `C/C=C/c1ccccc1`, with 3.35; and `[O-][N+](=Cc1c(Cl)cccc1Cl)c1ccccc1`, with 2.16; and `CC(=O)CCN(C)c1ccc(S(=O)(=O)N(C)C)cc1`, with 0.23.
`Nc1cc(C(F)(F)F)cc(C(F)(F)F)c1` gave a logP of 3.57.
Same read-out and setting: then `CC(=O)Oc1ccccc1C(C)C`, with 2.78; and `COc1cccc(C)c1`, with 2.66; and `O=C(Cc1ccccc1)Nc1ccc(Cl)c(Cl)c1`, with 4.47.
On to `CCOC(=O)N=[N+]([O-])c1ccccc1`, for which the logP turned out to be 2.53.
Same read-out and setting: then `CCOC(=O)C(=O)c1cccs1`, with 1.77.
`CO[C@H]1/C=C\O[C@@]2(C)Oc3c(C)c(O)c4c(O)c(c(/C=N/OCCCc5ccccc5)c(O)c4c3C2=O)NC(=O)/C(C)=C\C=C/[C@H](C)[C@H](O)[C@@H](C)[C@@H](O)[C@@H](C)[C@H](OC(C)=O)[C@@H]1C` had a logP of 4.83.
The same measure, in the same setting: the value for `c1ccc2oncc2c1` was 1.63.
The same measure, in the same setting: the value for `O=C1CN=C(c2ccc[nH]2)c2cc(Cl)ccc2N1` was 2.59.
Same read-out and setting: then `C=C(C=O)CC`, with 1.24; and `NC(=S)c1ccccc1`, with 1.49; and `CCC(C)=O`, with 0.5.
As for `COc1ccc(OC(C)=O)cc1`, the logP came to 1.54.
The same measure, in the same setting: the value for `N#CN=[N+]([O-])c1cccc(Cl)c1` was 2.4.
In turn, `CC(=O)Oc1cccc(F)c1` came in with a log partition coefficient (logP) of 1.74.
Turning to `O=C(O)c1ccco1`, the logP was determined as 0.64.
In turn, `CCOP(=S)(OCC)N1C(=O)c2ccccc2C1=O` showed a logP of 3.48.
The same measure, in the same setting: then `C[C@]12CCC(=O)C=C1CC[C@@H]1[C@@H]2[C@@H](O)C[C@@]2(C)[C@H]1CC[C@]2(O)C(=O)CO`, with 1.61; and `CCOP(=S)(OCC)SCS(=O)C(C)(C)C` (centres undefined), with 2.21; and `Oc1ccccc1/C=N/c1ccccc1`, with 3.09.
The same measure, in the same setting: then `CC(=O)Nc1cc2c(cc1Cl)S(=O)(=O)NC(C)=N2`, with 0.53.
Same read-out and setting: then `CSc1ccc(NC(C)=O)cc1`, with 2.03.

Staying with this data set, now noted: pH 1.0.
In turn, `CCCN(CCC)S(=O)(=O)c1ccc(C(=O)O)cc1` displayed a logD of 3.21.
Still for that read-out and setting: then `CCc1ccccc1OCC(=O)O`, with 2.53.

Staying with this data set, now noted: pH 2.2.
As to `c1ccc(Cc2nn[nH]n2)cc1`, the logD amounted to 1.36.

Staying with this data set, now noted: pH 3.0.
`CC(=O)OCC1=C(C(=O)O)N2C(=O)C(NC(=O)C(O)c3ccccc3)C2SC1` (centres undefined) yielded a logD of -0.44.

The data set is the same for the next values; noted with them: pH 6.0.
As for `Cc1cc(N(C)S(=O)(=O)c2ccc(N)cc2)no1`, the logD was determined as 1.75.

The data set is the same for the next values; noted with them: pH 7.0.
Compound `COC(=O)c1ccc(OC)cc1` had a logD of 2.27.
For the compound `CC(=O)c1ccc(C#N)cc1`, the logD turned out to be 1.22.
On to `FC(F)(F)c1ccc2cccnc2c1`, for which the logD was 3.02.
Same read-out and setting: the value for `CC(=O)Oc1ccc(C(C)=O)cc1` was 1.29.

The data set is the same for the next values; noted with them: pH 7.4.
The compound `CCCCNc1c(C)n(C)c(=O)n(-c2ccccc2)c1=O` gave a logD of 1.69.
The same measure, in the same setting: then `CCN(CC)c1c(C)n(-c2ccccc2)c(=O)n(CC)c1=O`, with 2.78.
The same measure, in the same setting: then `COc1cc2c(c(OC)c1OC)-c1ccc(SC)c(=O)cc1[C@@H](N[C@@H]1O[C@H](CO)[C@@H](O)[C@H](O)[C@H]1O)CC2`, with 1.25; and `Cc1c(N(C)C)c(=O)n(-c2ccccc2)c(=O)n1C`, with 1.3.

The data set is the same for the next values; noted with them: pH 7.5.
`CC1OC(C)OC(C)O1` (centres undefined) had a logD of 0.67.

The data set is the same for the next values; noted with them: pH 11.0.
Consider `CN(C)Cc1cccnc1`, for which the logD was found to be 0.49.

The data set is the same for the next values; noted with them: pH 12.0.
For `CCC[C@@H]1C[C@@H](C(=O)N[C@@H]([C@H]2O[C@H](SCC)[C@H](O)[C@@H](O)[C@H]2O)[C@@H](C)O)N(CC)C1`, the logD turned out to be 1.91.

The data set is the same for the next values; noted with them: pH 13.0.
`COc1ccc(OC)c(Cc2cnc3nc(N)nc(N)c3c2C)c1` registered a logD of 2.13.

The logP is the decadic logarithm of the partition coefficient of the neutral form, usually between octanol and water. Higher therefore signals higher lipophilicity. In general, logD refers to the decadic logarithm of the distribution of all forms, ionised or not, between an organic phase and buffer at a given pH. The low end stands for a more hydrophilic compound, the high end for a more lipophilic compound.
